Laboratory results: PMC12298351, “Novel 3,19-(N-Phenyl-3-(4-fluorophenyl)-pyrazole) Acetal of Andrographolide Promotes Cell Cycle Arrest and Apoptosis in MDA-MB-231 Breast Cancer Cells” (Pharmaceuticals, 2025)

How the values were obtained:
SF-539 = settings: SF-539, CNS
M14 = assay type: cell-based; settings: M14, Melanoma
SK-MEL-2 = settings: SK-MEL-2, Melanoma
MCF7 = settings: MCF7, Breast
KM12 = settings: KM12, Colon
CAKI-1 = settings: CAKI-1, Renal
[1] = DPPH radical scavenging assay; settings: 25 µM test compound, 0.1 mM DPPH, acetonitrile, 30 min
Summary of the method: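 Compounds at 25 µM in acetonitrile mixed 1:2 with 0.1 mM DPPH in acetonitrile, kept 30 min in the dark at room temperature. Absorbance read at 517 nm; % scavenging = (Ac − As)/Ac × 100, Ac being DPPH blank. Ascorbic acid positive control.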

U251 = settings: U251, CNS
RXF 393 = settings: RXF 393, Renal
MDA-MB-468 = settings: MDA-MB-468, Breast
OVCAR-8 = settings: OVCAR-8, Ovarian
SK-MEL-28 = settings: SK-MEL-28, Melanoma
A498 = settings: A498, Renal
OVCAR-3 = settings: OVCAR-3, Ovarian
NCI/ADR-RES = settings: Ovarian
SW-620 = settings: SW-620, Colon
HT29 = settings: HT29, Colon
[2] = read-out: 50% lethal concentration (LC50)
[3] = read-out: 50% lethal concentration (LC50), Non-Small Cell Lung
[4] = read-out: 50% lethal concentration (LC50), Melanoma

C=C1CCC2C3(C)COC(c4cn(-c5ccccc5)nc4-c4cccc([N+](=O)[O-])c4)OC3CCC2(C)C1CC=C1C(=O)OCC1O (stereo not drawn) [1b]
GI50 (SR; Leukemia): 3.46 µM
Total growth inhibition (TGI) (SR; Leukemia): > 100 µM
CC50 (SR; read-out: 50% lethal concentration (LC50), Leukemia): > 100 µM
GI50 (SF-539): 1740 nM
Total growth inhibition (TGI) (SF-539): 3.18 µM
CC50 (SF-539; [2]): 5.79 µM
GI50 (M14): 2080 nM
LC50 (50% lethal concentration) (M14): 9.85 µM
Total growth inhibition (TGI) (M14): 4.52 µM
Total growth inhibition (TGI) (EKVX; Non-Small Cell Lung): 7.98 µM
GI50 (EKVX; Non-Small-Cell Lung): 2750 nM
CC50 (EKVX; [3]): > 100 µM
GI50 (SK-MEL-2): 1780 nM
Total growth inhibition (TGI) (SK-MEL-2): 3.51 µM
CC50 (SK-MEL-2; [2]): 6.94 µM
GI50 (MCF7): 2640 nM
Total growth inhibition (TGI) (MCF7): > 100 µM
CC50 (MCF7; [2]): > 100 µM
GI50 (KM12): 1990 nM
Total growth inhibition (TGI) (KM12): 4.38 µM
Total growth inhibition (TGI) (NCI-H226; NCI-H226, Non-Small Cell Lung): 6.59 µM
GI50 (NCI-H226; NCI-H226, Non-Small-Cell Lung): 2380 nM
CC50 (NCI-H226; read-out: 50% lethal concentration (LC50), NCI-H226, Non-Small Cell Lung): > 100 µM
GI50 (CAKI-1): 2810 nM
Total growth inhibition (TGI) (CAKI-1): > 100 µM
CC50 (CAKI-1; [2]): > 100 µM
Total growth inhibition (TGI) (A549/ATCC; Non-Small Cell Lung): > 100 µM
GI50 (A549/ATCC; Non-Small-Cell Lung): 3.62 µM
CC50 (A549/ATCC; [3]): > 100 µM
% DPPH radical scavenging activity [1]: 60.68%
Total growth inhibition (TGI) (HOP-62; HOP-62, Non-Small Cell Lung): 12.4 µM
GI50 (HOP-62; HOP-62, Non-Small-Cell Lung): 3.15 µM
CC50 (HOP-62; read-out: 50% lethal concentration (LC50), HOP-62, Non-Small Cell Lung): > 100 µM
GI50 (U251): 1740 nM
Total growth inhibition (TGI) (U251): 3.35 µM
CC50 (U251; [2]): 6.46 µM
GI50 (RXF 393): 1620 nM
Total growth inhibition (TGI) (RXF 393): 3.2 µM
CC50 (RXF 393; [2]): 6.32 µM
GI50 (MDA-MB-468): 1760 nM
Total growth inhibition (TGI) (MDA-MB-468): 3.52 µM
CC50 (MDA-MB-468; [2]): 7 µM
GI50 (OVCAR-8): 1900 nM
Total growth inhibition (TGI) (OVCAR-8): 5.04 µM
CC50 (OVCAR-8; [2]): > 100 µM
GI50 (SK-MEL-28): 2040 nM
Total growth inhibition (TGI) (SK-MEL-28): 4.06 µM
CC50 (SK-MEL-28; [2]): 8.11 µM
GI50 (LOX IMVI; Melanoma): 1720 nM
Total growth inhibition (TGI) (LOX IMVI; Melanoma): 3.34 µM
CC50 (LOX IMVI; [4]): 6.48 µM
GI50 (A498): 1900 nM
Total growth inhibition (TGI) (A498): 45.4 µM
CC50 (A498; [2]): > 100 µM
Total growth inhibition (TGI) (NCI-H460; NCI-H460, Non-Small Cell Lung): 4.8 µM
GI50 (NCI-H460; NCI-H460, Non-Small-Cell Lung): 2270 nM
CC50 (NCI-H460; read-out: 50% lethal concentration (LC50), NCI-H460, Non-Small Cell Lung): 11.3 µM
GI50 (OVCAR-3): 1870 nM
Total growth inhibition (TGI) (OVCAR-3): 3.75 µM
CC50 (OVCAR-3; [2]): 7.55 µM
GI50 (NCI/ADR-RES): 2980 nM
GI50 (MALME-3M; Melanoma): 1780 nM
Total growth inhibition (TGI) (MALME-3M; Melanoma): 3.55 µM
CC50 (MALME-3M; [4]): 7.05 µM
GI50 (SW-620): 2210 nM
Total growth inhibition (TGI) (SW-620): 5.13 µM
CC50 (SW-620; [2]): > 100 µM
GI50 (HT29): 1820 nM
Total growth inhibition (TGI) (HT29): 4.26 µM
CC50 (HT29; [2]): 9.95 µM
GI50 (SN12C; Renal): 2930 nM
Total growth inhibition (TGI) (SN12C; Renal): 10.3 µM
CC50 (SN12C; read-out: 50% lethal concentration (LC50), Renal): > 100 µM
GI50 (HS 578T; Breast): 2690 nM
CC50 (HS 578T; read-out: 50% lethal concentration (LC50), Breast): > 100 µM
GI50 (MDA-MB-231; MDA-MB-231, Breast): 1840 nM
Total growth inhibition (TGI) (MDA-MB-231; MDA-MB-231/ATCC, Breast): 3.44 µM
CC50 (MDA-MB-231; read-out: 50% lethal concentration (LC50), MDA-MB-231/ATCC, Breast): 6.44 µM
